Assay results: the NIST ThermoML archive (doi:10.1021/je200457q)

Columns and labels:
[1] = excess molar enthalpy (molar enthalpy of mixing); xn = mol fraction of the nth substance listed; conditions: 101 kPa, Liquid, Flow calorimetry
[2] = 298.15 K; 101.33 kPa; Liquid; Vibrating tube method

C=CC(C)(O)CCC=C(C)C (configuration not stated) [3,7-dimethyl-1,6-octadien-3-ol] + CCCO
excess molar enthalpy [kcal/mol], [1]
Conditions | 283.15 K | 298.15 K | 313.15 K | 328.15 K
x1 = 0.048 | -0.0404 | -0.0392 | -0.0428 | -0.0411
x1 = 0.096 | -0.0772 | -0.0786 | -0.0786 | -0.0698
x1 = 0.188 | -0.13 | -0.136 | -0.134 | -0.112
x1 = 0.29 | -0.153 | -0.167 | -0.162 | -0.131
x1 = 0.383 | -0.154 | -0.168 | -0.161 | -0.132
x1 = 0.491 | -0.142 | -0.148 | -0.142 | -0.119
x1 = 0.584 | -0.121 | -0.124 | -0.123 | -0.0997
x1 = 0.693 | -0.0884 | -0.0908 | -0.0937 | -0.0777
x1 = 0.794 | -0.0588 | -0.0614 | -0.0686 | -0.0574
x1 = 0.894 | -0.027 | -0.0311 | -0.0356 | -0.0304
x1 = 0.945 | -0.0139 | -0.0163 | -0.0191 | -0.0165

C=CC(C)(O)CCC=C(C)C (configuration not stated) [3,7-dimethyl-1,6-octadien-3-ol] + CCO
excess molar enthalpy [kcal/mol], [1]
Conditions | 283.15 K | 298.15 K | 313.15 K | 328.15 K
x1 = 0.047 | -0.0366 | -0.0366 | -0.0418 | -0.0413
x1 = 0.094 | -0.0741 | -0.0805 | -0.0839 | -0.0798
x1 = 0.19 | -0.143 | -0.152 | -0.157 | -0.143
x1 = 0.29 | -0.185 | -0.198 | -0.202 | -0.18
x1 = 0.387 | -0.191 | -0.207 | -0.212 | -0.189
x1 = 0.481 | -0.179 | -0.19 | -0.199 | -0.177
x1 = 0.585 | -0.152 | -0.165 | -0.17 | -0.152
x1 = 0.695 | -0.11 | -0.121 | -0.128 | -0.114
x1 = 0.78 | -0.0743 | -0.0923 | -0.101 | -0.0875
x1 = 0.895 | -0.0335 | -0.0423 | -0.0473 | -0.0411
x1 = 0.946 | -0.0165 | -0.021 | -0.0249 | -0.0232

CCCCO [butan-1-ol]
Conditions | mass density [kg/m3]
[2] | 805.71

CCO [ethanol]
Conditions | mass density [kg/m3]
[2] | 785.46

CCCO [propan-1-ol]
Conditions | mass density [kg/m3]
[2] | 799.56

CC(C)O [propan-2-ol]
Conditions | mass density [kg/m3]
[2] | 781.23
